Assay results as given in US20090118285A1, “USE OF KCNQ-OPENERS FOR TREATING OR REDUCING THE SYMPTOMS OF SCHIZOPHRENIA” (H. Lundbeck A/S, priority 2006, published 2009).

Columns and labels:
[1] = test system: DA levels in the nucleus accumbens; assay: Microdialysis: DA levels in the nucleus accumbens of freely moving rats; format: in vivo, rat; settings: 8.1 mg/kg s.c.
Source text: It is well-known that psychostimulants increase locomotor activity via an increase in extracellular DA levels in the nucleus accumbens, which is the terminal area of the mesolimbic DA projections (Guix et al., 1992, Neurosci. Lett., 138(1), 137-140; Moghaddam et al., 1989, Synapse, 4(2), 156-161). It is also known, that the antagonistic effect of antipsychotics on stimulant-induced hyperlocomotion is related to the effect of antipsychotics to inhibit the stimulated DA levels in the nucleus accumbens (Broderick et al., 2004, Prog. Neuropsychopharmacology and Biol. Psych., 28, 157-171). Thus, the nucleus accumbens is an accepted neuroanatomical site for testing reversal of positive symptoms of psychosis. […] The experiments were conducted such that the data may be associated with the behavioural data obtained above.
Subjects. Male Sprague-Dawley rats (Charles River), initially weighing 275-300 g, were used. The animals were housed under a 12-hr light/dark cycle under controlled conditions for regular in-door temperature (21±2° C.) and humidity (55±5%) with food and tap water available ad libitum.
Surgery. Animals were anaesthetized with hypnorm/dormicum (2 ml/kg s.c.) and intracerebral guide cannulas (CMA/12) were stereotaxically implanted, positioning the dialysis probe tip in the nucleus accumbens (co-ordinates: […] anterior to bregma, —1.2 mm lateral to bregma, 8.0 mm ventral to the dura). Anchor screws and acrylic cement was applied for fixation of the guide cannula. The body temperature of the animals was maintained at 37° C. by means of a rectal probe and a heating plate. The rats were allowed to recover from surgery for 2 days, housed singly in cages.
Experimental procedure. On the day of the experiment, a microdialysis probe (CMA/12, 0.5 mm diameter, 2 mm length) was inserted through the guide cannula of the conscious animal. The probes were connected to a microinjection pump via a dual channel swivel which allowed the animals unrestricted movements. Perfusion of the microdialysis probe with filtered Ringer solution (145 mM NaCl, 3 mM KCl, 1 mM MgCl2, 1.2 mM CaCl2) was maintained for the duration of the experiment at a constant flow rate of 1 μL/min. After 180 min of stabilisation, the experiments were initiated. Dialysates were collected every 20 min. After the experiments the rats were sacrificed by decapitation, their brains removed, frozen and sliced for probe placement verification.
Administration of compounds. […] Thirty min after the first administration dex-amphetamine sulphate (0.5 mg/kg s.c.) was administered.
Analysis of dialysate. The concentration of dopamine (DA) in the dialysates was assessed by means of HPLC with electrochemical detection. The dialysate constitutents were separated by reverse phase liquid chromatography (ODS 150×3 mm, […]). Mobile phase consisted of 90 mM NaH2PO4, 50 mM sodium citrate, 367 mg/l sodium 1-octanesulfonic acid, 50 μM EDTA and 8% acetonitrile (pH 4.0) at a flow rate of 0.5 ml/min. Electrochemical detection of DA was accomplished using a coulometric detector; potential set at E1=−75 mV and E2=300 mV (guard cell at 350 mV) (Coulochem II, ESA). The dialysate levels of DA in the three dialyse samples preceding the administration of compound were averaged and used as baseline level of DA (100%)

[2] = test system: DA levels in the nucleus accumbens; assay: as above; format: in vivo, rat; settings: no amphetamine provocation, data not shown
[3] = test system: anticonvulsant tests; settings: oral and intraperitoneal administration, rats and mice (Rostock et al. 1996); cited from earlier work
[4] = test system: K(+) current in neuronal cells; settings: cited from earlier work
[5] = test system: dopaminergic neurons in the ventral tegmental area; settings: ex vivo (Hansen et al. 2005); cited from earlier work

CCOC(=O)Nc1ccc(NCc2ccc(F)cc2)cc1N
DA level in the nucleus accumbens, amphetamine + compound ([1]; time 0 min, freely moving rats): 96 ± 6 % of baseline
DA level in the nucleus accumbens, amphetamine + compound ([1]; time 20 min, amphetamine 0.5 mg/kg s.c. 30 min after compound): 160 ± 11 % of baseline
DA level in the nucleus accumbens, amphetamine + compound ([1]; time 40 min, amphetamine 0.5 mg/kg s.c. 30 min after compound): 241 ± 33 % of baseline
DA level in the nucleus accumbens, amphetamine + compound ([1]; time 60 min, amphetamine 0.5 mg/kg s.c. 30 min after compound): 221 ± 26 % of baseline
DA level in the nucleus accumbens, amphetamine + compound ([1]; time 80 min, amphetamine 0.5 mg/kg s.c. 30 min after compound): 217 ± 14 % of baseline
DA level in the nucleus accumbens, amphetamine + compound ([1]; time 100 min, amphetamine 0.5 mg/kg s.c. 30 min after compound): 173 ± 9 % of baseline
DA level in the nucleus accumbens, amphetamine + compound ([1]; time 120 min, amphetamine 0.5 mg/kg s.c. 30 min after compound): 139 ± 9 % of baseline
DA level in the nucleus accumbens, amphetamine + compound ([1]; time 140 min, amphetamine 0.5 mg/kg s.c. 30 min after compound): 120 ± 9 % of baseline
DA level in the nucleus accumbens, amphetamine + compound ([1]; time −20 min, freely moving rats): 99 ± 6 % of baseline
DA level in the nucleus accumbens, amphetamine + compound ([1]; time −40 min, freely moving rats): 105 ± 3 % of baseline
Effect on basal extracellular DA level in the nucleus accumbens [2]: merely provoked levels of DA were affected, but not basal levels of DA
Activity in a range of anticonvulsant tests [3]: active after oral and intraperitoneal administration in rats and mice in a range of anticonvulsant tests
Activation of a K(+) current [4]: activate a K(+) current in neuronal cells
Firing of dopaminergic neurons in the ventral tegmental area [5]: suppress the firing of dopaminergic neurons in the ventral tegmental area ex vivo
